# Reference: patent publication US10507207B2, “Non-nucleosidic inhibitors of reverse transcriptase as antagonists of cell proliferation and inducers of cell differentiation” (ISTITUTO SUPERIORE DI SANITA, priority 2001, dated 2019)
# Legend:
# HL60 cells [1] = experiment: NBT dye reduction assay; assay type: cell-based, human; conditions: HL60, Nev 350 μM, 4 days
# primary AML blasts = experiment: Differentiation of AML cells poorly sensitive to RA; assay type: cell-based, human; conditions: nevirapine treatment
# HL60 cells [2] = experiment: Growth, viable cell count; assay type: cell-based, human; conditions: HL60, Nev 350 μM, 4 days
# [3] = tested on: C2C7 myogenic satellite cells; experiment: Differentiation of C2C7 myogenic cells (myotube scoring, MHC immunofluorescence); assay type: cell-based, murine; conditions: nevirapine pre-treatment, differentiation medium 48 h, anti-MHC IF
# Description: FIG. 4C, 60× magnification of myotubes in A. FIG. 4D, 60× magnification of myotubes in B. FIG. 4E, 60× magnification of MHC-positive myoblasts in the field in B.
# Murine C2C7 myogenic satellite cells, which proliferate as mononucleated myoblasts can be induced to differentiate upon growth factor withdrawal and form multinucleated myotubes that express muscle-specific genes. […] By light-field microscopy scoring (n=300 cells from randomly selected fields), the ratio between multinucleated myotubes (i.e., cells with more than three nuclei) and mono/binucleated cells was about 1:1 in nevirapine-treated compared to 1:2 in untreated samples. Cells monolayers were further analyzed by immunofluorescence (IF) using a polyclonal antibody to myosin heavy chain (MHC), a late marker of muscle differentiation.
# teratocarcinoma F9 cells = experiment: Differentiation of F9 cells (morphology, collagen type IV immunofluorescence); assay type: cell-based, murine; conditions: IF after 96 h
# Protocol: After 96 h, samples were fixed and processed for IF of collagen type IV (α1) chain (FIG. 5c, FIG. 5g, FIG. 5k) and DAPI staining of nuclei (FIG. 5b, FIG. 5f, FIG. 5j); pictures are merged in FIG. 5d, FIG. 5h and FIG. 5l (100× objective).
# AML#1 = experiment: Cytofluorimetric analysis of cell surface markers; assay type: cell-based, human; conditions: AML#1, NEV 450 μM, 4 days
# Morris 3924A hepatoma = experiment: Morris 3924A rat hepatoma in vivo
# Protocol: Rat strain: ACI/T inbred (about 180 gr)
# Tumor: Morris 3924A hepatoma is a fast-growing tumor which develops in inbred ACI/T animals. Three weeks after inoculation the tumor size is about 10 cm^3.
# Preparation of tumor cells: hepatoma tumor cells are prepared from the animal about two weeks after inoculation. The tumor is surgically removed from the animal, separated from connective and necrotic tissues and minced in small pieces. Tumor fragments are then suspended in sterile physiological solution and inoculated in the internal site of one thigh using a 20 ml-syringe with a large size needle. Routinely 0.5 ml of cell suspension are injected. The success rate of tumor implantation is nearly 99%.
# On the eleventh day, hepatoma cells were inoculated subcutaneously in pre-treated and in three non-treated control rats.
# Procedures and Results: Morris hepatoma cells were inoculated in 4 rats ([…]). The same day, treatment with efavirenz was initiated in two of them by injecting 1 mg/rat/day.
# AML #1 = experiment: Growth, viable cell count; assay type: cell-based, human; conditions: AML #1, Nev 350 μM, 4 days
# [4] = tested on: cyclin D1 in U343 Mg glioma; experiment: Western immunoblotting of cyclin D1; assay type: cell-based, human; conditions: 72 h nevirapine vs non-exposed controls, data not shown
# Description: (§1) FIG. 3A. Cell cycle analysis in control and nevirapine-exposed cells. […] In the U343 glioma cell line, the cell cycle was separately analysed in the diploid cell fraction (representing about ⅔ of all cells) and in the remaining fraction (about ⅓) which develops aneuploidy. FIG. 3B. […] The filter was reprobed with anti-actin antibody to control equal loading (lower panel).
# cyclin D1 in MCF-7 = experiment: Western immunoblotting of cyclin D1; assay type: cell-based, human; conditions: 72 h nevirapine vs non-exposed controls
# Description: as §1
# cyclin D1 in HT-29 = experiment: Western immunoblotting of cyclin D1; assay type: cell-based, human; conditions: 72 h nevirapine vs non-exposed controls
# Description: as §1
# [5] = tested on: HT-29 colon carcinoma cells; experiment: Cell proliferation by cell counting; assay type: cell-based, human; conditions: 350 μM nevirapine
# Description: (§2) Samples were withdrawn at specific times and cells were counted in nevirapine-exposed and control (DMSO-exposed) cultures. […] Saos-2 osteosarcoma cells were the most slowly responsive type, and only after 5 days of exposure did the growth rate begin to decrease compared to control cultures.
# [6] = tested on: Kasumi-1 cell line and primary blasts from two AML patients; experiment: Cell cycle in myeloid leukemia cells poorly sensitive to RA; assay type: cell-based, human; conditions: nevirapine treatment, data not shown
# early mouse embryos = experiment: Early mouse embryo cultures from in vitro fertilization (IVF) assays; conditions: added to cultures of IVF embryos; preliminary studies
# NB4 cells = experiment: NBT dye reduction assay; assay type: cell-based, human; conditions: NB4, Nev 350 μM, 4 days
# F9 cells = experiment: Semi-quantitative RT-PCR of cell cycle regulatory genes; assay type: cell-based, murine; conditions: nevirapine compared to non-exposed F9 cultures
# Description: FIG. 7B: Quantitative variations in gene expression. RT-PCR products hybridized with internal oligonucleotides were quantified by densitometry. […] Dark histograms represent the mean value, and light histograms the standard deviation, from at least three experiments for each gene. […] We examined a set of genes encoding D-type cyclins; growth inhibitors; modulators of apoptosis; and housekeeping proteins.
# ascite tumor = experiment: BALB/C mice inoculated with ascite tumor; assay type: in vivo; conditions: nevirapine 1 mg/mouse/day intraperitoneally for seven days from day of inoculation; controls 5/5 tumor
# Protocol: Procedure: 10 BALB/C mice were inoculated intraperitoneally (twice) with ascite tumor cells by injecting 0.2 ml of ascite withdrawn from an animal inoculated 8 days before. […] Mice were treated continuously with nevirapine for seven days.
# [7] = tested on: murine and human cell lines; experiment: Cell proliferation by cell counting, all cell lines; assay type: cell-based; conditions: 350 μM nevirapine vs DMSO control
# Protocol: Cells were cultured with (dashed line) and without (DMSO, solid line) nevirapine. The proliferation rate is expressed as the ratio of counted cells at the indicated times relative to the initial number of seeded cells, taken as 1. Points represent the mean value and bars the standard deviation from at least three independent assays for all cell types.
# as §2
compound,measurement,setting,value
"Cc1ccnc2c1NC(=O)c1cccnc1N2C1CC1 [nevirapine, 5,11-dihydro-11-cyclopropyl-4-methyl-6H-dipyrido-[3,2-b:2′,3′-e][1,4]diazepin-6-one]",NBT+ (%),HL60 cells [1],37.8 ± 2.5%
same,"differentiation (morphological, functional, immunophenotypic)",primary AML blasts,triggering differentiation
same,Viable cells N^0 × 10^5,HL60 cells [2],4.7 ± 1.1 × 10^5
same,myosin synthesis in isolated myoblasts,[3],already activated
same,synthesis of collagen type IV(α1) chain,teratocarcinoma F9 cells,increased synthesis
same,CD11b mean fluorescence intensity,AML#1,5.9 AU
same,CD14 mean fluorescence intensity,AML#1,8.8 AU
same,CD15 mean fluorescence intensity,AML#1,15.6 AU
same,tumor at the site of injection,"Morris 3924A hepatoma; nevirapine 18 mg/rat/day pre-treatment for 11 days, 17 days from inoculation, only one of 3 treated rats, controls 2-4 cm^3",small nodule of a few millimeters
same,rats in which onset and growth of hepatoma were antagonized (remained permanently healthy),"Morris 3924A hepatoma; nevirapine 18 mg/rat/day pre-treatment for 11 days, untreated 3/3 develop tumor",⅔
same,histology of tumor tissue,Morris 3924A hepatoma; nevirapine-treated rat vs untreated sample,"transformed areas are remarkably reduced, and cells present clear apoptotic features"
same,Viable cells N^0 × 10^5,AML #1,0.6 ± 0.1 × 10^5
same,cyclin D1 levels,[4],substantial decrease
same,cyclin D1 levels,cyclin D1 in MCF-7,substantial decrease
same,cyclin D1 levels,cyclin D1 in HT-29,substantial decrease
same,effectiveness of proliferation suppression compared with F9,[5],comparable effectiveness
same,accumulation of cells in the G1 phase of the cell cycle,[6],modest yet constant accumulation
same,development of early mouse embryos,early mouse embryos,early and effective developmental arrest
same,NBT+ (%),NB4 cells,37.2 ± 1.4%
same,Bcl-2 expression,F9 cells,Up-regulation
same,Cyclin D3 expression,F9 cells,down-regulated
same,Rb-2/p130 expression,F9 cells,Up-regulation
same,cyclin D1 gene down-regulation,F9 cells,7 fold
same,"expression of housekeeping genes (β-actin, GAPDH)",F9 cells,unaffected
same,p16^INK4a up-regulation,F9 cells,~8 fold
same,p27^Kip1 expression,F9 cells,Up-regulation
same,p53 expression,F9 cells,unaffected
same,treated animals remaining healthy with no evidence of tumor growth,ascite tumor,⅗
same,rate of proliferation,[7],decreases the rate of proliferation in all cell lines
